System: P. methanolica cells (strain CBS6515, UV-mutagenized)
Assay: Nystatin enrichment for auxotrophic mutants; titering of nystatin-treated versus control cells for colony forming units
Assay type: cell-based, Pichia methanolica
Conditions: 1 mg nystatin added to the remainder of a 500 ml culture in minimal broth with 5 g/L ammonium sulfate, incubated 1 hour with shaking
Procedure: Large-scale mutagenesis was then carried out using a 2-second UV exposure to provide about 20% killing. Cells were plated at approximately 10^4 cells/plate onto eight YEPD plates that were supplemented with 100 mg/L each of uracil, adenine, and leucine, which were added to supplement the growth of potential auxotrophs having the cognate deficiencies. Following UV exposure the plates were wrapped in foil and incubated overnight at 30° C. The following day the colonies on the plates (^~ 10^5 total) were resuspended in water and washed once with water. An amount of cell suspension sufficient to give an OD600 of 0.1-0.2 was used to inoculate 500 ml of minimal broth made with yeast nitrogen base without amino acids or ammonia, supplemented with 1% glucose and 400 μg/L biotin. The culture was placed in a 2.8 L baffled Bell flask and shaken vigorously overnight at 30° C. The following day the cells had reached an OD600 of ^~ 1.0-2.0. The cells were pelleted and resuspended in 500 ml of minimal broth supplemented with 5 g/L ammonium sulfate. The cell suspension was placed in a 2.8 L baffled Bell flask and shaken vigorously at 30° C. for 6 hours. 50 ml of the culture was set aside in a 250-ml flask as a control, and to the remainder of the culture was added 1 mg nystatin (Sigma Chemical Co., St. Louis, Mo.) to select for auxotrophic mutants (Snow, Nature 211:206-207, 1966). […]

Structure (SMILES): C[C@@H]1[C@H](O)[C@@H](C)/C=C/C=C/CC/C=C/C=C/C=C/C=C/C(O[C@H]2O[C@H](C)[C@@H](O)[C@H](N)[C@@H]2O)CC2O[C@](O)(CC(O)C(O)CCC(O)CC(O)CC(O)CC(=O)O[C@H]1C)CC(O)C2C(=O)O (stereo partly shown) [nystatin]
- decrease in the number of viable cells (colony forming units), factor versus control cells: 10^4
